# Results: US10168317B2, “Microfluidic device, system, and method for tracking single cells and single cell lineages” (CORNELL UNIVERSITY, priority 2012, dated 2019)
# “And” between values parts separate entries of the source, which are not always exact repeats. Equal entries are not always repeated. “Also recorded” adds a separate entry of the source.
# Assays:
# cells = settings: straight confinement microchannels; cited from earlier work
# cell invasion = settings: together with protease inhibitors; cited from earlier work
# MDA-MB-231 cells [1] = assay: MUSIC device: cell invasion across subnucleus barriers (SNI), timelapse; assay type: cell-based, human; settings: for ability to invade across subnucleus barriers / tight spaces: taxol (Paclitaxel)-treated MDA-MB-231 cells
# Protocol: (§1) MDA-MB-231 cells were obtained from the NCl PS-OC and the ATCC. They were cultured in Leibovitz L-15 media (Life Technologies) supplemented with 10% fetal bovine serum (Atlanta Biologicals) and 1% Penicillin-Streptavidin (Life Technologies). K20T cells were obtained from the Giannakakou lab at Weill Cornell Medical College. They are a taxol-resistant derivative of MDA-MB-231 cells (K. M. Wiesen et al., Cancer Letters, 2007, 257, 227-235). They were cultured in L-15 media supplemented with 10% fetal bovine serum, 1% Penicillin-Streptavidin, and 15 nM paclitaxel (taxol) (Cytoskeleton, Inc). All cells were incubated at 37° C. without supplemented CO2.
# Cells were loaded into the inlet reservoir regions at the ends of the microchannels and allowed to spontaneously migrate into the three-dimensionally confined channels. Devices with cells were incubated as in regular cell culture as described above. Timelapse experiments were performed once the cells were in the channels. For each experiment, devices were placed on top of a heating plate maintained at 37° C. Typical durations for timelapse experiments were around 1-2 days at a temporal resolution of 3.4 minutes. Cell tracking and measurements were performed by manual tracing via ImageJ. Data processing and analysis were performed via custom programs on MATLAB. The height of the microchannels used for all experiments with quantitative analysis was 10 μm. […] For statistical analysis, the Chi-squared test was used for probability measurements, and ANOVA statistics were used for all other measurements, unless otherwise specified. Error bars are standard error of the mean (s.e.m.). Standard DAPI staining was used for fluorescence imaging in FIG. 9. For cell viability in these devices, we found in a typical timelapse experiment of ˜23 hrs that less than 10% (5 out of 54) of the cells died while occupying the experimental field of view.
# To develop an assay that can directionally focus the cell invasion program for high throughput quantitative analysis, we designed and fabricated a microfluidic device that induces serial dimensional modulation on the cell and nucleus scale (FIG. 3). We refer to this herein as a MUlti-staged Serial Invasion Channels (MUSIC) device. […] Then we incorporate a spatially tapering interface that connects the confinement channel to another even smaller channel (referred to as the subnucleus barrier (SNB)) with width smaller than the cell nucleus, which is one of the largest and stiffest organelles in the cell (P. Friedl et al., Current Opinion in Cell Biology, 2011, 23, 55-64). […] This device design in essence directs and reduces the 3-D invasion program into a 2-component process—1) the cell migrates in the x-direction while 2) necessarily altering its y-dimensions. Because the migration vector points in one direction (x) and the primary induced region of change is in the orthogonal direction (y), high throughput quantitative analysis can now be accomplished in 1-D, thus increasing the feasibility of experiments and enabling predetermined axes of interest. Furthermore, repeating patterns of the subnucleus barrier are placed along the length of the microchannel, enabling serial effects and multiple sampling of individual cells, therefore providing a way to elucidate the plasticity of mechanisms of invasion for each cell. In our experiments, we consider both 1) cell invasion in only the larger confinement channel region (referred to as LCI) and 2) invasion from the larger channel across the subnucleus barrier (referred to as SNI). Our device design incorporates two different lengths for the SNB—10 μm (SNB10) and 60 μm (SNB60), which are shorter and longer than a typical MDA-MB-231 cell, respectively.
# To understand higher order effects of cell invasion, we first identified the nonlinearity in the cell displacement function during SNI. Then we segmented the process into 4 distinct phases and measured the time constants of each phase. […]
# MDA-MB-231 cells [2] = assay: MUSIC device: cell migration in the larger channel LC (speed, mean-squared displacement); assay type: cell-based, human
# Protocol: as §1
# Cells were loaded into the inlet reservoir regions at the ends of the microchannels and allowed to spontaneously migrate into the three-dimensionally confined channels. Devices with cells were incubated as in regular cell culture as described above. Timelapse experiments were performed once the cells were in the channels. For each experiment, devices were placed on top of a heating plate maintained at 37° C. Typical durations for timelapse experiments were around 1-2 days at a temporal resolution of 3.4 minutes. Cell tracking and measurements were performed by manual tracing via ImageJ. Data processing and analysis were performed via custom programs on MATLAB. The height of the microchannels used for all experiments with quantitative analysis was 10 μm. […] Standard DAPI staining was used for fluorescence imaging in FIG. 9. […]
# To develop an assay that can directionally focus the cell invasion program for high throughput quantitative analysis, we designed and fabricated a microfluidic device that induces serial dimensional modulation on the cell and nucleus scale (FIG. 3). […] Because the migration vector points in one direction (x) and the primary induced region of change is in the orthogonal direction (y), high throughput quantitative analysis can now be accomplished in 1-D, thus increasing the feasibility of experiments and enabling predetermined axes of interest. […]
# MDA-MB-231 cells [3] = assay: Serial micropipette: pressure-driven transit across sequential subnucleus-scaled constrictions; assay type: cell-based, human; settings: 10 μM taxol for 1 day
# Protocol: MDA-MB-231 cells were obtained from the NCl Physical-Sciences and Oncology Center. They were cultured in Leibovitz L-15 media (Life Technologies) with 10% fetal bovine serum (Atlanta Biologicals) and 1% Penicillin-Streptavidin (Life Technologies) at 37° C. without CO2.
# Devices were treated with 1% bovine serum albumin (BSA) (Sigma-Aldrich) in serum-free media (L-15) for several hours before experiments in order to prevent stiction. Additionally, cells used in experiments were resuspended in serum-free media. Cells were loaded into the inlet reservoir of the device and experiments were automatically conducted as described in the design and operations section of this paper. The device was placed and kept on a heating plate set at 37° C. Videos were recorded at 500 ms per frame under a microscope, which produced the data of the experiments. Experimental analysis and cell tracking were performed using ImageJ and custom MATLAB programs. For statistical analysis, one-way ANOVA was used to determine statistical significance. Error bars on data represent standard error of the mean (s.e.m.). For taxol experiments, cells were incubated in 10 μM taxol (Cytoskeleton, Inc.) for 1 day prior to experiments. For fluorescence experiments, NucBlue (a live nucleus counterstain that is formulated from Hoechst 33342) (Life Technologies) was used and cells were incubated in the dye in complete growth media for 15 minutes.
# The device consists of parallel microchannels. Each channel contains a series of microconstrictions to serve as a serial micropipette capable of deforming objects multiple times via pressure driven flow. The larger region of the channel has a width of 15 μm, which is on the order of the size of a cell. The smaller constriction region is 3.3 μm, which is smaller than the cell nucleus, thus ensuring that the cell undergoes a substantial deformation that samples a key organelle in the cell that often limits cell squeezing in physiological landscapes due to its size and stiffness. […]
# MDA-MB-231 cells [4] = assay: Single-cell lineage drug response in parallel microfluidic channels; assay type: cell-based, human; settings: 1 nM Paclitaxel, constant treatment, day 2 and day 6, about one week
# Protocol: FIG. 26 illustrates breast cancer cells treated with 1 nM Paclitaxel at day 2 (top) and day 6 (bottom) from initial treatment, as observed in one embodiment of a microfluidic device/microfluidic system of the present invention. […] The emergence of drug resistance can therefore be identified at the single-cell and single-cell lineage level, which can provide better biological resolution and can identify the onset of resistance more quickly especially if only a rare subpopulation of the bulk cells is resistant.
# To move forward, we will expand these studies to distinguish the difference in drug responsivity between individual cell lineages enabled by our cell isolation technique previously described, and we will extend the time-scale of these experiments to accommodate for the emergence of drug resistance.
# [5] = tested on: MDA-MB-231 metastatic breast cancer cells; assay: Cell morphology after taxol treatment in the microfluidic device; assay type: cell-based, human
# Description: FIGS. 29A-29B illustrate cancer cells treated with the chemotherapeutic taxol in embodiments of a microfluidic device and system of the present invention. […] FIG. 29B: This more extended morphology from taxol-treated cells after failed mitosis resembles the morphology of K20T cells, which are the taxol-resistant variant of the MDA-MB-231 cells.
# FIGS. 29A-29B show cancer cells treated with the chemotherapeutic taxol in embodiments of a microfluidic device and system of the present invention. […] They also lose the ability to divide properly, resulting in an extensive blebbing phase followed by cytoskeletal recovery. After failed mitosis and recovery, the cells take on a different, more extended morphology, typically with more edges and extensions. This new morphology resembles the taxol-resistant variant of these cells. […] For timelapse stacks, 34 minutes elapsed between each frame.
SMILES,effect on migration rates in confinement (cells),effect on cell invasion in combination with protease inhibitors (cell invasion),total invasion time across subnucleus barrier SNB10 (MDA-MB-231 cells [1]; 16 µM),"factor of difference in total SNI time, treated vs untreated cells (MDA-MB-231 cells [1]; barrier 10 μm long, 16 μM taxol)",ability to invade across subnucleus barriers / tight spaces (MDA-MB-231 cells [1]),ability to invade across subnucleus barriers / tight spaces (MDA-MB-231 cells [1]; listed as Paclitaxel),"total invasion time across subnucleus barrier SNB10 (MDA-MB-231 cells [1]; taxol-treated MDA-MB-231 cells, 16 μM taxol (printed 1604), 10 μm long barrier, lower-bound measurement, many cells not permeated by end of experiment)","total invasion time across subnucleus barrier SNB60 (MDA-MB-231 cells [1]; taxol-treated MDA-MB-231 cells, 16 μM taxol (printed 1604), 60 μm long barrier, lower-bound measurement)","factor of difference in average cell speed between treated and untreated cells (MDA-MB-231 cells [2]; larger channel region LC, 16 μM taxol)","power-law exponent of mean-squared displacement vs. time (MSD ∝ t^x) (MDA-MB-231 cells [2]; taxol-treated MDA-MB-231 cells in larger channel LC, n=10 cells, non-linear least squares fit)","average speed in the larger channel LC (MDA-MB-231 cells [2]; taxol-treated MDA-MB-231 cells, 16 μM (printed 1604), 3.4 minute time interval, n=10)","transit time across the first constriction (MDA-MB-231 cells [3]; 10 μm-long constriction, about 400 pa, n=26)","transit times across subsequent constrictions, taxol treated vs untreated cells (MDA-MB-231 cells [3]; constrictions 2 to 5)",cell length in the microchannel (cell size) (MDA-MB-231 cells [3]; n=26),viability and proliferation of single-cell lineages under drug (MDA-MB-231 cells [4]),cell morphology after failed mitosis ([5]; taxol-treated cells after failed mitosis and recovery),cell morphology after treatment ([5]; taxol-treated cells before failed mitosis)
COC(=O)Nc1nc2ccc(C(=O)c3cccs3)cc2[nH]1 [Nocodazole],migration rates are affected,,,,,,,,,,,,,,,,
C[C@@H](N)[C@H]1CC[C@H](C(=O)Nc2ccncc2)CC1 [Y27632],,synergistic effects in preventing cell invasion,,,,,,,,,,,,,,,
"CC(=O)O[C@H]1C(=O)[C@@]2(C)[C@H]([C@H](OC(=O)c3ccccc3)[C@]3(O)C[C@H](OC(=O)[C@H](O)[C@@H](NC(=O)c4ccccc4)c4ccccc4)C(C)=C1C3(C)C)[C@]1(OC(C)=O)CO[C@@H]1C[C@@H]2O [taxol, paclitaxel]",migration rates are affected,,≥ 22 h,> 20,reduced ability in invading across tight spaces,can no longer invade,> 20 h,≥ 22 h,~2,1 and 1.014,0.53 μm/min,550 ± 109 s,transit times collapse between the two cell groups,31±2 μm,many cells underwent apoptosis but a select lineage continues to propagate; also recorded: many other cells in other channels underwent apoptosis after failed cell division,recover a more extended morphology,"less extended, more rounded morphology"
